Here are results for five molecules from patent US20260176260A1, “DUAL RAF AND TUBULIN INHIBITORS AND METHODS OF USE THEREOF” (Deciphera Pharmaceuticals, LLC, priority 2023, published 2026).

Molecules are shown by their SMILES. Read-outs that look alike come from different tables or passages of the source. Some results are limits rather than exact numbers.

In one assay the test system is Pa16c cells. The experiment in a line: Pa16c cell proliferation assay (resazurin). Type of assay: cell-based. Conditions: Table 2, inhibition of cell proliferation. The essentials: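 Pa16c cells, 750 per well in DMEM with 10% FBS, exposed to serially diluted compound in triplicate for 67-72 h at 37 °C. Resazurin then added for a further 18-24 h, fluorescence read at Ex 540/Em 600 nm, and IC50 calculated.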
(In general: Resazurin is reduced to fluorescent resorufin, in cell work by metabolically active cells.)

A further assay relates to HCT-116 cells. Description: HCT-116 cell proliferation assay (resazurin). Type of assay: cell-based. Particulars: read-out: HCT-116. The essentials: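 HCT-116 cells, 375 per well in McCoy's 5A with 10% FBS, exposed to serially diluted compound in triplicate for 67-72 h at 37 °C. Resazurin added for 4-5 h more; fluorescence (ex 540/em 600 nm) fitted to IC50.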
Another assay has as its target T1, B-Raf kinase (Homo sapiens, UniProt P15056).
T1 construct: purchased Sigma
The experiment in a line: Biochemical assay for B-Raf (coupled pyruvate kinase/lactate dehydrogenase). Particulars: read-out: BRAF.

For the next assay, the system named is MiaPaca-2 cells. Description: MiaPaca-2 cell proliferation assay (resazurin). Format: cell-based. Particulars: read-out: MiaPaca-2.
The next assay concerns the target T2, C-Raf kinase (Homo sapiens, UniProt P04049, Y340D/Y341D).
T2 construct: C-Raf residues 306-end; Y340D, Y341D with N-; purchased Sigma
The experiment in a line: Biochemical assay for C-Raf (coupled pyruvate kinase/lactate dehydrogenase). Conditions: read-out: CRAF.

Where [1] appears, read: Homo sapiens, Table 2, inhibition of cell proliferation.
Setting [2] is: Table 1, inhibition of biochemical activity.
[3] abbreviates: Homo sapiens, MIA PaCa-2, Table 2, inhibition of cell proliferation.

T2 sequence (P04049 307-648 Y340D/Y341D): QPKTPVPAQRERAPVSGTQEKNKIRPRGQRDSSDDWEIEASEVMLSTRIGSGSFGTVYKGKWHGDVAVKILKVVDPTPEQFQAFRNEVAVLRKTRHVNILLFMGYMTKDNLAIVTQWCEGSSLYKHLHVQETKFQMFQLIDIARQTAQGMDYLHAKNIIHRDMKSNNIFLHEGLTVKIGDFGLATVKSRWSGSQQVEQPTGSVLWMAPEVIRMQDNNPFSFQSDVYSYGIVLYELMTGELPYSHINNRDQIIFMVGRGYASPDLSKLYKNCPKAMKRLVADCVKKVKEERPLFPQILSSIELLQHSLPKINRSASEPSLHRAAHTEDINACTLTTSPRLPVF
T1 sequence (P15056 416-766): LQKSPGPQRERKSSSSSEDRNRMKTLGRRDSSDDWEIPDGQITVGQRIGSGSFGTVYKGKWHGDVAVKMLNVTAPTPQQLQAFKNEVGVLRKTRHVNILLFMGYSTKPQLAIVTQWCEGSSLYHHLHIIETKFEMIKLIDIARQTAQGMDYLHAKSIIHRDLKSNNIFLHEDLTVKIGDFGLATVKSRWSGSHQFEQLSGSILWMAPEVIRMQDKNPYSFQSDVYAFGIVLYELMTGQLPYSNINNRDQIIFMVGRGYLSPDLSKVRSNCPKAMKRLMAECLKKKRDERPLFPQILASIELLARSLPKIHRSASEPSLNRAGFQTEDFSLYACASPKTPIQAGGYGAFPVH

`CNC(=O)c1cc(-c2cc(-c3cc(NC(=O)c4cc(C(F)(F)F)cnn4)ccc3C)ccn2)ccn1` [Example 9]: the IC50 in the assay with Pa16c cells is 100 to 500 nM; with HCT-116 cells (setting [1]) it was 100 to 500 nM; in the assay with HCT-116 cells (Table 3), 100 to 500 nM; at B-Raf kinase (setting [2]) it was below 100 nM; at B-Raf kinase (Table 3), below 100 nM; with MiaPaca-2 cells (setting [3]), 100 to 500 nM. Also, the figures for the IC50 with MiaPaca-2 cells (Table 3), on C-Raf kinase (setting [2]) and at C-Raf kinase (Table 3) were 100 to 500 nM, below 100 nM and below 100 nM, respectively.

`CNC(=O)c1cc(-c2cc(-c3cc(NC(=O)c4cc(C5CC5)cnn4)ccc3C)ccn2)ccn1` [Example 26]: the IC50 with Pa16c cells is 100 to 500 nM; with HCT-116 cells (setting [1]), 100 to 500 nM; with HCT-116 cells (Table 3), 100 to 500 nM; at B-Raf kinase (setting [2]), below 100 nM; on B-Raf kinase (Table 3), below 100 nM; in the assay on MiaPaca-2 cells (setting [3]), 100 to 500 nM. Moreover, the IC50 with MiaPaca-2 cells (Table 3) was 100 to 500 nM; at C-Raf kinase (setting [2]), below 100 nM; at C-Raf kinase (Table 3), below 100 nM.

With `CNC(=O)c1cc(-c2cc(-c3cc(NC(=O)c4cc(C(F)(F)F)cnn4)ccc3C)cc(NCCO)n2)ccn1` [Example 18], the IC50 in the assay on Pa16c cells, with HCT-116 cells (setting [1]), in the assay on HCT-116 cells (Table 3), on B-Raf kinase (setting [2]), at B-Raf kinase (Table 3) and in the assay on MiaPaca-2 cells (setting [3]) was below 100 nM throughout. The IC50 with MiaPaca-2 cells (Table 3), on C-Raf kinase (setting [2]) and at C-Raf kinase (Table 3) was below 100 nM each time.

For `CNC(=O)c1cc(-c2cc(-c3cc(NC(=O)c4cc(C(F)(F)F)cnn4)ccc3C)cc(C)n2)ccn1` [Example 2, N,6-dimethyl-4-(2-methyl-5-(5-(trifluoromethyl)pyridazine-3-carboxamido)phenyl)-[2,4′-bipyridine]-2′-carboxamide], the IC50 was 500 to 1000 nM in the assay on Pa16c cells; 500 to 1000 nM in the assay with HCT-116 cells (setting [1]); 500 to 1000 nM in the assay on HCT-116 cells (Table 3); 100 to 500 nM at B-Raf kinase (setting [2]); 100 to 500 nM on B-Raf kinase (Table 3); 100 to 500 nM in the assay on MiaPaca-2 cells (setting [3]). In addition, the IC50 in the assay with MiaPaca-2 cells (Table 3) was 100 to 500 nM; on C-Raf kinase (setting [2]) it was below 100 nM; at C-Raf kinase (Table 3), below 100 nM.

As for `CNC(=O)c1cc(-c2cc(-c3cc(NC(=O)c4cc(C5CC5)cnn4)ccc3C)cc(NCCO)n2)ccn1` [Example 27], the IC50 in the assay on Pa16c cells is below 100 nM; in the assay with HCT-116 cells (setting [1]), below 100 nM; in the assay on HCT-116 cells (Table 3), below 100 nM; on B-Raf kinase (setting [2]) it was below 100 nM; on B-Raf kinase (Table 3) it was below 100 nM; with MiaPaca-2 cells (setting [3]), 100 to 500 nM. Also, the IC50 in the assay on MiaPaca-2 cells (Table 3) is 100 to 500 nM; at C-Raf kinase (setting [2]) it was below 100 nM; on C-Raf kinase (Table 3) it was below 100 nM.
